Experimental data taken from PubChem BioAssay (NCI).
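Values below derive from 48-hour exposures of cells grown in 96-well plates, with endpoints linearly interpolated between the two concentrations bracketing the appropriate inhibition level. At the GI50, growth is halved. The concentration for full growth arrest is given as TGI.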

How the values were obtained:
Assay in all cases: growth of human tumour cells (NCI), 48 h
HT29 colon = system: HT29 colon
NCI-H226 lung = system: NCI-H226 lung
UO-31 renal = system: UO-31 renal
DU-145 prostate = system: DU-145 prostate
SK-MEL-2 melanoma = system: SK-MEL-2 melanoma
RPMI-8226 leukemia = system: RPMI-8226 leukemia
A549 NSCLC = system: A549 NSCLC
BT-549 breast = system: BT-549 breast
CCRF-CEM leukemia = system: CCRF-CEM leukemia
OVCAR-8 ovarian = system: OVCAR-8 ovarian

Compound | GI50 (HT29 colon) [µM] | TGI (HT29 colon) [µM] | GI50 (NCI-H226 lung) [µM] | TGI (NCI-H226 lung) [µM] | GI50 (UO-31 renal) [µM] | TGI (UO-31 renal) [µM] | GI50 (DU-145 prostate) [µM] | TGI (DU-145 prostate) [µM] | GI50 (SK-MEL-2 melanoma) [µM] | TGI (SK-MEL-2 melanoma) [µM] | GI50 (RPMI-8226 leukemia) [µM] | TGI (RPMI-8226 leukemia) [µM] | GI50 (A549 NSCLC) [µM] | TGI (A549 NSCLC) [µM] | GI50 (BT-549 breast) [µM] | TGI (BT-549 breast) [µM] | GI50 (CCRF-CEM leukemia) [µM] | TGI (CCRF-CEM leukemia) [µM] | GI50 (OVCAR-8 ovarian) [µM] | TGI (OVCAR-8 ovarian) [µM]
O=C(CC(Cl)=C(Cl)Cl)c1cccc(Cl)c1Cl | 75.4 | > 100 | 75.1 | > 100 | 59.4 | > 100 | > 100 | > 100 | > 100 | > 100 | 82.7 | > 100 | > 100 | > 100 | 70.6 | > 100 | 46.6 | > 100 | > 100 | > 100
CCc1nc(N)nc(N)c1-c1ccc(N2CCNCC2)cc1 |  | > 100 |  | > 100 |  | > 100 |  | > 100 |  | > 100 |  | > 90.5 |  | > 100 |  | > 100 |  | > 86.7 |  | > 100
COC(=O)[C@H]1CCCN1C(=O)[C@H]1CCCN1C(=O)[C@H](Cc1c[nH]c2ccccc12)NC(=S)Nc1cc(C(F)(F)F)cc(C(F)(F)F)c1 | 2.95 | 8.72 | 9.63 | > 100 | 18.5 | > 100 | 6.53 | > 100 | 5.34 | 27.8 | 5.24 | > 100 | 4.08 | > 100 | 8.74 | 46 | 7.23 | > 100 | 7.01 | > 100
c1cc2c(cn1)Nc1ccncc1S2 | 58 | > 100 | 49.2 | > 100 | 23.5 | > 100 | 44.5 | > 100 | 35.2 | > 100 | 36.3 | > 100 | 32.8 | > 100 | 59.5 | > 100 | 37.3 | > 100 | 35.7 | > 100
O=C1/C=C/[C@@H](O)[C@@H]2C[C@@H](O)C[C@H]2/C=C/CCC[C@H](C(F)(F)F)O1 | 0.0678 | 0.38 | 0.0687 | 0.68 | 0.0813 | 2.25 | 0.955 | > 100 | 0.244 | 0.78 | 0.274 | 1.04 | 2.1 | > 100 | 0.211 | 10.8 | 0.205 | 0.916 | 0.254 | 9.03
CCn1c(-c2nonc2N)nc2cncc(C(=O)N3CC[C@H](N)C3)c21 | > 25 | > 25 | 0.966 | > 25 | 0.269 | > 8.77 | > 25 | > 25 | > 25 | > 25 | > 25 | > 25 | 7.29 | > 25 | 3.92 | > 25 | 15.2 | > 25 | > 25 | > 25
